Patent US20050137222A1, “Treatment of insomnia in human patients” (H. Lundbeck A/S, priority 2003, published 2005)

How the values were obtained:
[1] = tested on: adult (18-65 yrs) primary insomnia subjects; assay: 3 week placebo controlled parallel group outpatient study of daytime performance (VAS, Sheehan disability scale); type: in vivo, human; conditions: doses 5, 10 and 15 mg, about ½ hour before bedtime; 3 weeks; effect more pronounced during week 2 and 3
Protocol: The daytime performance (used interchangeably with daytime function) in adult (18-65 yrs) primary insomnia subjects (Diagnostic and Statistical Manual of Mental Disorders—Fourth Edition, […]) has been assessed in a 3 week placebo controlled parallel group, outpatient study. The performance was measured with standardized questions using a 100 point Visual Analogue Scale (VAS). The questions asked for subjects to report on their daytime ability to function, tiredness, energy and relaxedness. Subject responses were recorded in a diary in the evening on the day after each treatment night (gaboxadol was administered about ½ hour before bedtime). Moreover, daytime function was recorded once weekly using the Sheehan disability scale (Sheehan et al., 1996, “The measurement of disability,” International Clinical Psychopharmacology 11 (suppl. 3), 89-95).

animals = conditions: cited from earlier work
[2] = tested on: healthy subjects exposed to a phase advance model; assay: Phase advance model in healthy subjects (PSG and subjective recording); type: in vivo, human
Protocol: (§1) Effect is confirmed for short-term treatment in studies using acute treatment in healthy subjects exposed to a phase advance model. Assessment of effect on insomnia during intermediate term treatment duration is performed in primary insomnia subjects using treatment duration up to 4 weeks. Long term or chronic treatment is assessed in 12 month safety studies. Subject populations include primary insomnia subjects with age range 18-65 yrs (adults) and 65 and above (elderly).
(§2) Sleep maintenance is measured by either of parameters wakefulness after sleep onset, number of awakenings after sleep onset or total sleep time. […] In these studies, the effect was also confirmed by the subjects own feelings of the sleep initiation. Based both on PSG and on subjective diary recording, gaboxadol doses of 5 to 15 mg are highly preferred to achieve effect in adults and elderly (gaboxadol was administered from ½ hour before bedtime up to immediately before going to bed).

healthy human subjects = conditions: cited from earlier work
[3] = tested on: adult subjects with primary insomnia; assay: Polysomnograph (PSG) study in adult subjects with primary insomnia; type: in vivo, human
Protocol: as §1, §2

human subjects = assay: EEG slow wave sleep and spectral analysis in the clinical studies; type: in vivo; conditions: similar effect range as for slow wave sleep
Description: Moreover, gaboxadol induced a dose-dependent increase in duration of slow wave sleep (SWS), that is, stages 3 and 4, which is considered the deepest stage of sleep. The effect ranged between +15 and 46% compared to placebo.

In the case of Oc1noc2c1CCNC2 [gaboxadol, 4,5,6,7-tetrahydroisoxazolo(5,4-c)pyridin-3-ol], the “daytime performance (weekly means of VAS questions and Sheehan disability scale)” value [1] is listed as “significantly improve daytime performance”, the “nonREMS amount and nonREMS/REMS episode duration” value (animals) is listed as “increasing total amount of nonREMS and lengthening the duration of the nonREMS and REMS episodes” and the “sleep maintenance as measured by polysomnograph (wakefulness after sleep onset, number of awakenings after sleep onset or total sleep time)” value ([2]; healthy subjects, phase advance model) is listed as “improves sleep maintenance”. For the same molecule, the “subjects' own perception of the sleep maintenance effect” value ([2]; healthy subjects, phase advance model, subjective) was “decreased wakefulness”, the “lowest dose at which the sleep maintenance effect was observed” value ([2]; oral, study not clearly specified in the text) was “about 5 mg per day” and the sleep initiation ([2]; subjects in a phase advance model, confirmed by subjects' own feelings) was “facilitated sleep initiation”. For the same molecule, the deep sleep (healthy human subjects) was “promote deep sleep”, the “influence on REM sleep” value (healthy human subjects) was “no disrupting influence on REM sleep” and the sleep maintenance (healthy human subjects) was “increase sleep maintenance”. The “sleep maintenance as measured by polysomnograph (wakefulness after sleep onset, number of awakenings after sleep onset or total sleep time)” value ([3]; adult subjects with primary insomnia, oral, from ½ hour before bedtime up to bedtime) was “improves sleep maintenance”, the sleep initiation ([3]; primary insomnia subjects, confirmed by subjects' own feelings) was “facilitated sleep initiation” and the “slow wave activity in EEG spectral analysis” value (human subjects) was “increase of slow wave activity”.
